{"source": "patent US11077116B2", "about": "“Isoxazole derivatives as inducers of fetal hemoglobin in erythroid precursor cells from beta-thalassemic patients” (RARE PARTNERS SRL, priority 2017, dated 2021)", "tested_on": "ErPCs (erythroid precursor cells) of β-thalassemic patients", "assay": "HPLC analysis of hemoglobins in cell lysates of treated ErPCs (two-phase liquid culture)", "type": "cell-based, human", "details": "for HbF induction: patient Th1 ErPCs (Table II); for HbF induction compared with HU: patient Th10 ErPCs (Table III); for HbF level in treated cells (table title): 100 nM as printed in title", "experimental": "Patients were recruited following all the ethical requirements and the approval of the Ethical Committees of Ferrara Hospital. Blood samples were collected from 23 β-thalassemia patients after signature of the informed consent form.\nThe effects of isoxazole derivatives on cell growth and differentiation of erythroid precursors cells were determined by employing the two-phase liquid culture system and treated for five days with different concentration of the selected compound.\nHPLC analyses were done on cell lysates derived from ErPCs of 23 patients and, through careful comparative analyses, we have monitored and quantified HbF, adult hemoglobins (HbA0 and HbA2) and the presence of α-aggregates. Generally, excess of α-globin chains is present in thalassemic patients that are deficient in β-globins, causing α-aggregates formation and precipitation. The α-aggregates reduction represents an important clinical result usually detectable in the presence of efficient HbF inducers.", "data": [{"smiles": "CCNC(=O)c1noc(-c2cc(C(C)C)c(O)cc2O)c1NC(=O)c1ccc(OC)cc1", "note": "[Compound 1]", "values": [{"measurement": "HbF induction", "result": "active in inducing HbF"}, {"measurement": "aggregates α %", "setting": "patient Th1 ErPCs, 85 nM, untreated C− 6.70", "result": 5.90, "unit": "%"}, {"measurement": "HbF %", "setting": "patient Th1 ErPCs, 85 nM, untreated C− 15.47", "result": 30.30, "unit": "%"}, {"measurement": "HbA2 %", "setting": "patient Th1 ErPCs, 85 nM, untreated C− 31.29", "result": 21.39, "unit": "%"}, {"measurement": "HbA0 %", "setting": "patient Th1 ErPCs, 85 nM, untreated C− 46.54", "result": 42.41, "unit": "%"}, {"measurement": "HbF induction compared with HU", "result": "more active than HU in inducing HbF"}, {"measurement": "aggregates α %", "setting": "patient Th10 ErPCs, 85 nM, untreated C− 11.15", "result": 2.26, "unit": "%"}, {"measurement": "HbF %", "setting": "patient Th10 ErPCs, 85 nM, untreated C− 17.57", "result": 35.54, "unit": "%"}, {"measurement": "HbA2 %", "setting": "patient Th10 ErPCs, 85 nM, untreated C− 32.02", "result": 25.81, "unit": "%"}, {"measurement": "HbA0 %", "setting": "patient Th10 ErPCs, 85 nM, untreated C− 39.26", "result": 36.39, "unit": "%"}]}, {"smiles": "CCNC(=O)c1noc(-c2cc(C(C)C)c(O)cc2O)c1NC(=O)CCN1CCOCC1", "note": "[Compound 2]", "values": [{"measurement": "HbF induction", "result": "active in inducing HbF"}, {"measurement": "aggregates α %", "setting": "patient Th1 ErPCs, 50 nM, untreated C− 6.70", "result": 2.81, "unit": "%"}, {"measurement": "HbF %", "setting": "patient Th1 ErPCs, 50 nM, untreated C− 15.47", "result": 21.67, "unit": "%"}, {"measurement": "HbA2 %", "setting": "patient Th1 ErPCs, 50 nM, untreated C− 31.29", "result": 24.82, "unit": "%"}, {"measurement": "HbA0 %", "setting": "patient Th1 ErPCs, 50 nM, untreated C− 46.54", "result": 50.70, "unit": "%"}, {"measurement": "HbF induction compared with HU", "result": "more active than HU in inducing HbF"}, {"measurement": "aggregates α %", "setting": "patient Th10 ErPCs, 50 nM, untreated C− 11.15", "result": 2.02, "unit": "%"}, {"measurement": "HbF %", "setting": "patient Th10 ErPCs, 50 nM, untreated C− 17.57", "result": 36.36, "unit": "%"}, {"measurement": "HbA2 %", "setting": "patient Th10 ErPCs, 50 nM, untreated C− 32.02", "result": 25.29, "unit": "%"}, {"measurement": "HbA0 %", "setting": "patient Th10 ErPCs, 50 nM, untreated C− 39.26", "result": 36.34, "unit": "%"}]}, {"smiles": "NC(=O)NO", "note": "[HU, hydroxyurea, reference compound]", "values": [{"measurement": "HbF induction", "result": "active in inducing HbF"}, {"measurement": "HbF level in treated cells (table title)", "setting": "patient Th1 ErPCs, untreated 15.47%", "result": 24.51, "unit": "%"}, {"measurement": "aggregates α %", "setting": "patient Th1 ErPCs, 100 μM, untreated C− 6.70", "result": 2.80, "unit": "%"}, {"measurement": "HbF %", "setting": "patient Th1 ErPCs, 100 μM, untreated C− 15.47", "result": 24.51, "unit": "%"}, {"measurement": "HbA2 %", "setting": "patient Th1 ErPCs, 100 μM, untreated C− 31.29", "result": 33.19, "unit": "%"}, {"measurement": "HbA0 %", "setting": "patient Th1 ErPCs, 100 μM, untreated C− 46.54", "result": 37.61, "unit": "%"}, {"measurement": "HbF level in treated cells (table title)", "setting": "patient Th10 ErPCs, untreated 17.57%", "result": 19.42, "unit": "%"}, {"measurement": "aggregates α %", "setting": "patient Th10 ErPCs, 100 μm, untreated C− 11.15", "result": 11.55, "unit": "%"}, {"measurement": "HbF %", "setting": "patient Th10 ErPCs, 100 μm, untreated C− 17.57", "result": 19.42, "unit": "%"}, {"measurement": "HbA2 %", "setting": "patient Th10 ErPCs, 100 μm, untreated C− 32.02", "result": 34.82, "unit": "%"}, {"measurement": "HbA0 %", "setting": "patient Th10 ErPCs, 100 μm, untreated C− 39.26", "result": 34.22, "unit": "%"}]}]}
